Experimental findings from patent US7316990B2, “High-strength, low viscosity herbicidal formulations of glyphosate” (Dow AgroSciences LLC, priority 2003, dated 2008) are described below.

The structures appear in SMILES notation.

For this experiment, the system named is Five broadleaf species (IPOHE, CHEAL, EPHHL, ABUTH and CASOB). The experiment can be described thus: Greenhouse study of glyphosate salt solutions in mixture with a second herbicide (Colby's equation). It is filed as in vivo. The note with it: for % Actual Control: 420 gae/ha glyphosate and/or 140 gae/ha second herbicide, 3 days after application, averaged over the 5 species; for Herbicide interaction with 2,4-D DMA and triclopyr TEA (actual versus expected control): Colby's equation. The method, then: In a further greenhouse study, the efficacy of a glyphosate DMA salt solution in mixture with DMA 4 (456 g/l 2,4-D acid equivalent in the form of the DMA salt) and Garlon 3A (360 g/l triclopyr acid equivalent in the form of the triethylamine [TEA] salt) respectively was compared with the efficacy of a glyphosate K salt solution in the same mixtures. The glyphosate salt solutions were prepared by diluting the glyphosate DMA salt concentrate and glyphosate K salt concentrate with the required amount of water to prepare solutions containing 480 g/l glyphosate acid equivalent each. Five broadleaf species (IPOHE, CHEAL, EPHHL, ABUTH and CASOB) were sprayed with the individual formulations as well as the mixtures listed in Table 6. The herbicide interactions were analyzed using Colby's equation. This equation for the expected mixture response is: Y1+2=Y1+Y2−(Y1Y2)100 where Y1+2 is the expected mixture response and y1 and y2 are the percent control values of the individual herbicides.

For the compound `CNC.O=C(O)COc1ccc(Cl)cc1Cl` [2,4-D DMA salt], the “% Actual Control” value is listed as 47.0%.

In the case of `CNC.O=C(O)CNCP(=O)(O)O` [glyphosate DMA salt], the “% Actual Control” value turned out to be 35.7%; the “Herbicide interaction with 2,4-D DMA and triclopyr TEA (actual versus expected control)” value is recorded as “no antagonism”.

As to `O=C(O)CNCP(=O)([O-])O.[K+]` [glyphosate K salt], the “% Actual Control” value was 35.7%; the “Herbicide interaction with 2,4-D DMA and triclopyr TEA (actual versus expected control)” value is reported as “antagonistic”.

Turning to `CCN(CC)CC.O=C(O)COc1nc(Cl)c(Cl)cc1Cl` [triclopyr TEA salt], the “% Actual Control” value turned out to be 55.0%.
